Data taken from PubChem BioAssay AID489032 (Sanford-Burnham Center for Chemical Genomics, 2010).
Activity calls are given as the source filed them. The rule behind the calls is not given here.

test system: UPR adaptive arm reporter cells, luciferase luminescence; assay: activators of adaptive UPR signalling, dose response, cell-based, luciferase luminescence (AID 489032)

Row | SMILES | EC50
1 | Cc1ccc(NC(=O)c2cc(S(=O)(=O)N(C)C)ccc2N2CCCC2)cc1F | 37.6 µM (inactive)
2 | O=C(Nc1nc(-c2ccc3ccccc3c2)cs1)c1ccc(N2C(=O)CCC2=O)cc1 | > 80 µM (inactive)
3 | Cc1ccc2nsnc2c1NC(=O)c1ccc(-c2cc(Cl)ccc2Cl)o1 | > 80 µM (inactive)
4 | CCOc1cc(/C=C2/C(=N)N3C=CSC3=NC2=O)ccc1OCCCOc1ccccc1C | > 80 µM (inactive)
5 | Cc1ccccc1NC(=O)c1ccc(N/N=C/c2ccccc2O)c([N+](=O)[O-])c1 | > 80 µM (inactive)
6 | c1ccc(N=Nc2ccc3cccccc2-3)cc1 | > 80 µM (inactive)
7 | Cc1nc(Nc2nc(-c3ccccc3)cc(=O)[nH]2)nc2ccccc12 | 11.9 µM
8 | Cc1ccc(C(=O)N2N=C(c3ccc(Br)cc3)CC2c2ccccc2O)cc1 (stereo not drawn) | > 80 µM (inactive)
9 | O=C1NC(=O)N(Cc2ccc(F)cc2)C(=O)/C1=C/c1cccs1 | > 80 µM (inactive)
10 | N#Cc1cc2c(nc1SCC(=O)Nc1sc3c(c1C#N)CCC3)CCCC2 | > 80 µM (inactive)
11 | O=C1c2cccc3cc(Br)cc(c23)C(=O)N1Nc1ccc(Br)cc1 | > 80 µM (inactive)
12 | Cc1cccc2sc(NC(=O)c3cc(S(=O)(=O)N(C)C)ccc3N3CCCC3)nc12 | 9.84 µM
13 | O=C(NCc1ccccc1Br)c1cccc2c1C(=O)c1ccc(-c3ccc(OC(F)(F)F)cc3)cc1S2(=O)=O | 19.2 µM
14 | COc1cc(OC)c2c(-c3cccc(-c4ccc(CO)cc4)c3)cc(=O)oc2c1 | > 80 µM (inactive)
15 | COc1ccc(NC(=O)c2cc3c(=O)n(C)c4ccccc4c3n2C)cc1Cl | > 80 µM (inactive)
16 | Cc1ccc2c(c1)C(=O)C(=O)N2Cc1ccc(C(F)(F)F)cc1 | 27.5 µM (inactive)
17 | CC1(C)C[C@H](O)[C@]2(CO)[C@H](O)C[C@]3(C)C(=CCC4[C@@]5(C)CC[C@H](O)C(C)(C)C5CC[C@]43C)[C@@H]2C1 (stereo partly drawn) | 18.1 µM
18 | COc1cc([C@H]2c3[nH]c4ccccc4c3C[C@H]3C(=O)N4[C@@H](c5cc(OC)c(OC)c(OC)c5)c5[nH]c6ccccc6c5C[C@H]4C(=O)N23)cc(OC)c1OC | 12.1 µM
19 | Cn1c(Cl)cnc1C1CC(=O)c2cc(Cl)ccc2O1 (stereo not drawn) | 18.9 µM
20 | CC1CCc2c(sc(NC(=O)CCc3nc4ccccc4c(=O)[nH]3)c2C#N)C1 (stereo not drawn) | 30.3 µM (inactive)
21 | O=C(NCC1CC1)c1cccc2c1C(=O)c1ccc(-c3ccc(OC(F)(F)F)cc3)cc1S2(=O)=O | > 80 µM (inactive)
22 | CC1C/C(=N/Nc2nc3ccccc3[nH]2)CC(C)(C)C1 (stereo not drawn) | > 80 µM (inactive)

Row | SMILES | EC50
23 | Cc1ccc(C)c(N=Cc2c(O)c3ccccc3oc2=O)c1 | 37.1 µM (inactive)
24 | O=C(/C=C/c1ccccc1)NC(NC(=S)Nc1cccc(Cl)c1)C(Cl)(Cl)Cl (stereo not drawn) | > 80 µM (inactive)
25 | CCc1ccc(N2C(=O)NC(=O)/C(=C\c3cccn3CCOc3ccc(C(C)C)cc3)C2=O)cc1 | > 80 µM (inactive)
26 | CCCCNc1c(-c2ccc(SC(C)CC)cc2)nc2cnccn12 (stereo not drawn) | > 80 µM (inactive)
27 | NC(=O)CC(NC(=O)Cc1cccc2ccccc12)c1ccc(NCCOc2ccccc2)c([N+](=O)[O-])c1 (stereo not drawn) | > 80 µM (inactive)
28 | CCOC(=O)C1=C(C)N=C2c3ccccc3C(=O)C2C1c1ccc(C)cc1 (stereo not drawn) | > 80 µM (inactive)
29 | COc1ccc2cc3c(N)nn(C(=O)C4CCC(C(C)(C)C)CC4)c3nc2c1 (stereo not drawn) | > 80 µM (inactive)
30 | Cc1ccc(NC(=O)COc2ccc(/C=C3/SC(=Nc4ccccc4)N(Cc4cccnc4)C3=O)cc2)cc1 | 34.4 µM (inactive)
31 | COc1ccc(NC(=O)CSc2nc3ccc(Nc4nc(N5CCOCC5)nc(N5CCOCC5)n4)cc3s2)cc1 | > 80 µM (inactive)
32 | CCC1(c2ccc(F)cc2)NC(=O)N(CC(=O)Nc2ccc(-c3nc4ccc(C)cc4s3)cc2)C1=O (stereo not drawn) | > 80 µM (inactive)
33 | Cc1cccc(Nc2nc3c(S(=O)(=O)c4ccccc4)nnn3c3ccccc23)c1C | 50.2 µM (inactive)
34 | Cc1ccnc(N/C=C(\C#N)c2nc(-c3cccc(Br)c3)cs2)c1 | 20.7 µM (inactive)
35 | CCOC(=O)C1=C(C)N=C2SC(C(=O)OC)=CC(=O)N2C1c1ccc(F)cc1 (stereo not drawn) | 32.6 µM (inactive)
36 | Cc1ccc(-c2nc(N/N=C/c3cccc([N+](=O)[O-])c3)c3ccccc3n2)cc1 | > 80 µM (inactive)
37 | COc1cc([N+](=O)[O-])cc(/C=N/NC(=O)c2ccc(NC(=O)c3ccc(C)cc3)cc2)c1O | > 80 µM (inactive)
38 | COc1cc(N(C(=O)Cc2cccs2)C(C(=O)NC2CCCCC2)c2ccc(C)cc2)ccc1-n1cnnn1 (stereo not drawn) | > 80 µM (inactive)
39 | O=C(Nc1ccc([N+](=O)[O-])cc1)c1nc[nH]c1C(=O)NC1CCCCC1 | > 80 µM (inactive)
40 | Cc1ccc(S(=O)(=O)N(CC(=O)N/N=C/c2ccc(F)cc2)c2cccc3cccnc23)cc1 | > 80 µM (inactive)
41 | Cn1nnnc1Sc1ncnc2scc(-c3ccc(Br)cc3)c12 | > 80 µM (inactive)
42 | FC(F)(F)c1nc2ccccc2n2c(-c3ccc(Cl)cc3)nnc12 | > 80 µM (inactive)
43 | Cc1nn(Cc2c(Cl)cccc2Cl)c(C)c1NC(=O)c1sc2ccccc2c1Cl | 29.8 µM (inactive)
44 | CC(C)(C)c1cc(-c2nc(N)nc(N)n2)c(O)c(C(C)(C)C)c1 | 38.8 µM (inactive)

Row | SMILES | EC50
45 | O=C(Nc1cccc(-c2nc3cccnc3s2)c1)C1c2ccccc2Oc2ccccc21 | 4.67 µM
46 | OCCCn1c(C2CCCN2c2nc(-c3ccc(Cl)cc3)cs2)nc2cc(Cl)c(N3CCCCC3)cc21 (stereo not drawn) | > 80 µM (inactive)
47 | COc1cc(C(=O)Nc2cc(-c3nc4cc(C)ccc4o3)ccc2C)cc(OC)c1OC | > 80 µM (inactive)
48 | COc1cc2nc(N3CCN(c4cc(C)ccc4C)CC3)nc(N)c2cc1OC | > 80 µM (inactive)
49 | CN(C)CCCNC(=O)c1ccc(-c2nc(-c3ccc(Cl)cc3)cs2)cc1 | > 80 µM (inactive)
50 | O=C(CSc1nc2ccccc2c(=O)n1-c1ccccc1)N1CCc2ccccc21 | > 80 µM (inactive)
51 | O=C(CSCc1ccc(Cl)cc1)Nc1ccc(-c2nnc(-c3ccccc3)o2)cc1 | > 80 µM (inactive)
52 | O=C(Nc1ccc2oc(-c3ccccc3Cl)nc2c1)c1cncc(Br)c1 | > 80 µM (inactive)
53 | CN(c1ccccc1)S(=O)(=O)c1cccc(C(=O)NCCc2ccc(O)c(O)c2)c1 | 32.2 µM (inactive)
54 | O=S(=O)(c1ccc2nc(-c3ccccc3)[nH]c2c1)N1CCN(c2ccc(Cl)cc2)CC1 | > 80 µM (inactive)
55 | O=C(/C=C/c1cc([N+](=O)[O-])ccc1OC(F)F)Nc1cccc([N+](=O)[O-])c1 | > 80 µM (inactive)
56 | CCOC(=O)c1nnc(-c2ccc(C)cc2)nc1Oc1ccccc1Cl | > 80 µM (inactive)
57 | COc1cc(/C=C(/C#N)c2nc3ccccc3[nH]2)ccc1OCC(=O)Nc1ccccc1C | > 80 µM (inactive)
58 | COc1cccc(-n2c(SCC(=O)N3CCc4ccccc43)nnc2-c2c[nH]c3ccccc23)c1 | > 80 µM (inactive)
59 | Cc1cc(C)c(NC(=O)CSc2nc(COc3ccccc3)nc3ccccc23)c(C)c1 | > 80 µM (inactive)
60 | Nc1nc(Nc2cccc(C(F)(F)F)c2)nc(C(F)(F)F)n1 | 56.6 µM (inactive)
61 | O=C(COC(=O)/C=C/c1cn(-c2ccccc2)nc1-c1cccnc1)Nc1ccc(Cl)cc1Cl | > 80 µM (inactive)
62 | COc1ccc([N+](=O)[O-])cc1COc1ccc2c(-c3ccccc3)cc(=O)oc2c1 | > 80 µM (inactive)
63 | CC1CN(S(=O)(=O)c2ccc(C(=O)Nc3nc(-c4cc5ccccc5o4)cs3)cc2)CC(C)O1 (stereo not drawn) | > 80 µM (inactive)
64 | CCOC(=O)c1c(NC(C)=O)sc2c(OCC(O)CNC(C)(C)C)c(Br)ccc12 (stereo not drawn) | > 80 µM (inactive)
65 | Cn1c(-c2ccccc2)c(/C=N/NC(=O)c2ccc(O)cc2)c2ccccc21 | > 80 µM (inactive)
66 | NS(=O)(=O)c1ccc(NC(=O)COC(=O)c2cn(-c3ccccc3)nc2-c2ccc(F)cc2)cc1 | > 80 µM (inactive)

Row | SMILES | EC50
67 | CCc1ccc(OCCNc2cc(N3CCNC(C)C3)ccc2[N+](=O)[O-])cc1 (stereo not drawn) | 18.9 µM
68 | Cc1ccc2c(c1)C(c1ccc([N+](=O)[O-])cc1)=NNC(c1ccc(Br)cc1)=N2 | > 80 µM (inactive)
69 | COc1ccc(CCn2c(=S)[nH]c3cc(C(=O)NCc4ccco4)ccc3c2=O)cc1OC | > 80 µM (inactive)
70 | Cc1ccc(CNC(=O)c2ccc3c(=O)n4c(-c5ccc(C)cc5)csc4nc3c2)cc1 | > 80 µM (inactive)
71 | CCOc1ccc(NC(=S)NC(=O)/C=C/c2ccc(C)cc2)c([N+](=O)[O-])c1 | > 80 µM (inactive)
72 | C=CCOc1ccc2cccc(/C=N/NC(=O)c3cc4cc([N+](=O)[O-])ccc4s3)c2c1 | 43.5 µM (inactive)
73 | O=C(Nc1ccc(Oc2ccc(NC(=O)Nc3ccccc3Cl)cc2)cc1)Nc1ccccc1Cl | > 80 µM (inactive)
74 | CCC(C)(C)C1CCC2(CC1)NC(=O)N(CC(=O)N1CCN(S(=O)(=O)c3cc(C)ccc3C)CC1)C2=O (stereo not drawn) | 27.2 µM (inactive)
75 | C/C(=N/NC(=O)c1ccc(Cl)s1)c1ccc(NC(=O)COc2ccc(Cl)cc2)cc1 | > 80 µM (inactive)
76 | CN(C)c1ccc(/C=N/NC(=O)c2ccc(NC(=O)c3ccccc3)cc2)cc1 | > 80 µM (inactive)
77 | CCOC(=O)/C(=C\c1ccccc1)C(=O)c1cc(C(C)=O)c(Nc2ccccc2)s1 | > 80 µM (inactive)
78 | COc1cc(/C=N/NC(N)=O)c(Br)cc1OCC(=O)Nc1ccccc1C | > 80 µM (inactive)
79 | CCOC(=O)c1c(NC(=O)Cc2cccs2)sc(C(=O)NC2CCCCC2)c1C | > 80 µM (inactive)
80 | CCCCOc1ccccc1NC(=O)Cn1c(-c2nonc2N)nc2ccccc21 | 22 µM (inactive)
81 | CCOC(=O)c1cc(-c2ccccc2)sc1NC(=O)c1ccc(OC)cc1 | > 80 µM (inactive)
82 | Cc1nc2cc(NC(=O)CSc3nc4c(C)cccc4cc3C#N)ccc2s1 | > 80 µM (inactive)
83 | COc1ccc(OC)c(-c2nnc3n2N=C(c2ccc(OC)c(OC)c2)CS3)c1 | > 80 µM (inactive)
84 | CCOC(=O)C1=C(C)N=c2s/c(=C3/C(=O)Nc4ccccc43)c(=O)n2C1c1ccc(C)cc1 (stereo not drawn) | > 80 µM (inactive)
85 | COc1ccc(C2CC(c3c(-c4ccccc4)c4cc(Cl)ccc4[nH]c3=O)=NN2S(C)(=O)=O)cc1 (stereo not drawn) | > 80 µM (inactive)
86 | Brc1ccc2c(c1)C(c1ccc(N3CCOCC3)cc1)=NNC(c1cccs1)=N2 | 26.4 µM (inactive)
87 | COC(=O)c1c(NC(=O)CC2Nc3ccccc3NC2=O)sc(C)c1C (stereo not drawn) | > 80 µM (inactive)
88 | Cc1ccc2c(c1)C(=O)C(=O)N2Cc1ccc(Br)cc1 | 59.8 µM (inactive)
